Data from patent publication US12697313B2, “Methods of treating anemia using formoterol or a pharmaceutically acceptable salt thereof” (Dana-Farber Cancer Institute, Inc., priority 2022, dated 2026).
Entries after “also recorded” stand apart in the source; their conditions may differ.

Key:
[1] = system: primary human HSPCs; experiment: Erythroid differentiation liquid culture of primary human HSPCs, flow cytometry; type: cell-based
Procedure: To address this, primary human HSPCs were treated with varying doses of FF (Selleckchem). […] To ascertain if FF administration plays a role further upstream in the erythroid differentiation pathway, methylcellulose colony-formation assays were performed.
CD34+ primary human hematopoietic stem and progenitor cells (HSPCs) were obtained from Fred-Hutchinson Cancer Research center, Seattle, USA and cultured, as previously described. Formoterol fumarate was purchased from Selleckchem (#S2020) and Sigma (#F9552), dissolved (in DMSO) and stored as per manufacturer's instructions, and used at the final working concentrations as indicated.

[2] = system: RPS14 KD HSPCs; experiment: Erythroid differentiation in RPS14 knockdown HSPCs; type: cell-based, human; settings: RPS14 KD HSPCs vs DMSO; FIG. 6D, FIG. 46
Source text: Since RIOK2-deficient primary human HSPCs effectively model impaired erythropoiesis leading to anemia (Ghosh et la. (2022) Nat Immunol 23: 109-121), it was next investigated whether treatment with formoterol fumarate (FF) alleviates anemia in this in vitro model. To address this, RIOK2-proficient and deficient primary human HSPCs via CRISPR-Cas9 based genome-editing were generated (FIG. 6A), as previously described (Ghosh et al. (2022) Nat Immunol 23: 109-121). […] Since RPS14 deletion is reported to be MDS-genic (Ebert et al. (2008) Nature 451: 335-339; Schneider et al. (2016) Nat Med 22: 288-297), RPS14 was similarly knocked down in primary human HSPCs (FIG. 6C).
(§1) Next, to validate the specificity of FF for β2-adrenoreceptors, ADRB2 was knocked down in primary human HSPCs and treated with FF.
(§2) Primary human HSPCs were genome-edited, as previously described (Ghosh, S., Raundhal, M., Myers, S. A., Carr, S. A., Chen, X., Petsko, G. A., and Glimcher, L. H. (2022). Identification of RIOK2 as a master regulator of human blood cell development. Nat Immunol 23, 109-121).

[3] = system: ADRB2-deficient HSPCs; experiment: Erythroid differentiation in ADRB2-deficient HSPCs (specificity for β2-adrenoreceptors); type: cell-based, human; settings: ADRB2 knocked down HSPCs; FIG. 6E-6F
Source text: as §1, §2

[4] = system: MDS patient-derived BM progenitors; experiment: Semi-solid methylcellulose culture of MDS patient-derived BM progenitors; type: cell-based, human
Source text: These findings prompted further testing to determine whether administration of FF in MDS patient-derived bone marrow (BM) samples improves erythroid differentiation in an ex vivo setting. To explore this, cells isolated from BM aspirates of de-identified MDS patients were procured. Next, the MDS patient-derived BM cells were placed in liquid erythroid differentiation culture, as previously described (Khajuria et al. (2018) Cell 173: 90-103), with or without FF treatment. […] To further validate this observation, the impact of FF from another vendor (Sigma) was tested on MDS patient-derived cells. […] Next, CD34+ progenitors were FACS-sorted from the MDS patient-derived BM aspirates and seeded in semi-solid methylcellulose culture media with vehicle (DMSO) or FF treatment. […] Therefore, the FDA-approved drug formoterol fumarate could be repurposed to reverse anemia in a range of hematological disorders.
After genome editing, primary human HSPCs were washed twice with 1× PBS and mixed with semi-solid methylcellulose medium (H4034 StemCell Technologies) by brief vortexing. Cells were plated at a density of 2000 per well in a 6-well plate followed by incubation in a humidified chamber at 37° C. for 14 days. Imaging of the colonies was performed using EVOS M5000 Imaging system® (ThermoFisher Scientific). […]

[5] = system: phenylhydrazine (PHZ)-mediated stress-induced anemic mice; experiment: Sublethal PHZ (50 mg/kg)-induced hemolytic anemia, female mice, FF i.p.; type: in vivo
[6] = system: phenylhydrazine (PHZ)-mediated stress-induced anemic mice; experiment: Sublethal PHZ (60 mg/kg)-induced hemolytic anemia, male mice, FF i.p.; type: in vivo
[7] = system: phenylhydrazine (PHZ)-treated mice; experiment: FF/Arf i.p. in PHZ-treated mice at sub-lethal dose of 60 mg/kg; type: in vivo
[8] = system: PHZ-induced lethal hemolytic anemia mice; experiment: PHZ lethal dose (135 mg/kg), FF oral gavage; type: in vivo; settings: 0.1/0.5 mg/kg o.g.; PHZ 135 mg/kg; FIG. 54
Source text: Log-rank (Mantel-Cox) test. n=5 mice per group. All comparisons were done w.r.t. vehicle (DMSO) treated controls.

[9] = system: naive wild-type mice; experiment: FF in naive wild-type mice without PHZ stress (FIG. 62 setup); type: in vivo; settings: for % change in body weights: FIG. 63
[10] = system: mitochondrial biogenesis; settings: cited from earlier work
[11] = 0.1/0.3 mg/kg, PHZ 60 mg/kg, FIG. 26

SMILES: COc1ccc(C[C@@H](C)NC[C@H](O)c2ccc(O)c(NC=O)c2)cc1.O=C(O)/C=C/C(=O)O [FF, (E)-but-2-enedioic acid;N-[2-hydroxy-5-[(1R)-1-hydroxy-2-[[(2R)-1-(4-methoxyphenyl)propan-2-yl]amino]ethyl]phenyl]formamide]
- erythroid differentiation (CD235a) ([1]; 1/5 μM, n=5 healthy donors, FIG. 2): induces erythroid differentiation (CD235a) dose-dependently
- megakaryocytic differentiation (CD41/61) ([1]; 1/5 μM, n=5 healthy donors, FIG. 12): does not influence megakaryocytic differentiation (CD41/61)
- erythroid differentiation ([1]; FF from Selleckchem and Sigma, n=4 healthy donors, FIG. 3A-3B): similarly enhanced erythroid differentiation; also recorded: enhances erythroid differentiation
- erythroid differentiation ([1]; control (RIOK2-proficient) HSPCs, FIG. 6B): consistently enhanced erythroid differentiation in the control HSPCs
- erythroid differentiation (CD235a) ([1]; varying doses FF (Selleckchem) vs 0 μM DMSO, n=3 healthy donors, FIG. 1A): elevated erythroid differentiation in primary human HSPCs in a dose-dependent manner; also recorded: enhances erythroid differentiation (CD235a) dose-dependently
- viability ([1]; varying doses FF vs DMSO, FIG. 1B): without affecting viability, megakaryopoiesis or myelopoiesis; also recorded: does not affect viability
- megakaryocytic (CD41-61) differentiation ([1]; varying doses FF vs DMSO, FIG. 1C): without affecting viability, megakaryopoiesis or myelopoiesis; also recorded: does not affect
- myeloid (CD11b) differentiation ([1]; varying doses FF vs DMSO, FIG. 1D): without affecting viability, megakaryopoiesis or myelopoiesis; also recorded: does not affect
- erythroid differentiation (CD235a) [2]: significantly increased erythroid differentiation in RPS14 KD HSPCs; also recorded: increases erythroid differentiation (CD235a) in RPS14 KD HSPCs; also recorded: moderately rescues erythropoiesis
- erythroid differentiation [3]: failed to induce erythropoiesis in ADRB2-deficient HSPCs; also recorded: inability of FF to induce erythroid differentiation
- viability, myelopoiesis (CFU-GM), megakaryopoiesis (CFU-Mk) ([4]; FIG. 11D): produced insignificant effects on the viability, myeloid and megakaryocytic differentiation; also recorded: does not affect viability, myelopoiesis (CFU-GM) or megakaryopoiesis (CFU-Mk)
- erythroid progenitors BFU-E and CFU-E ([4]; n=23 MDS patients, vs DMSO, FIG. 11A-11C): significantly boosted both BFU-E and CFU-E formation; also recorded: enhances differentiation of erythroid progenitors in MDS patient-derived bone marrow cells
- body weights (absolute and % change) ([5]; 0.1/0.3 mg/kg daily i.p., female, FIG. 18A): sufficient to revive body weights; also recorded: increases absolute body weights and % change in body weights
- HCT % and RBC counts ([5]; 0.1/0.3 mg/kg, FIG. 18B): produced long-term benefits in elevating HCT % and RBC counts
- Hb production ([5]; 0.1/0.3 mg/kg, FIG. 18B): significantly enhanced Hb production
- RBC parameters (Hb, HCT %, RBC numbers) in peripheral blood ([5]; 0.1/0.3 mg/kg, FIG. 18B): enhances and sustains RBC parameters
- platelet counts ([5]; FIG. 18C): not statistically significant
- WBC and monocyte counts ([5]; day 4 and over 14 days, FIG. 18C): provided an immediate boost to WBC and monocyte counts after PHZ administration, no long term benefits were observed; also recorded: increases WBC and monocyte counts in the peripheral blood after 4 days of daily i.p. injections but does not sustain the impact over 14 days
- body weights (absolute and % change) ([6]; 0.1/0.3 mg/kg i.p., PHZ 60 mg/kg, male, FIG. 22A): marked revival was similarly observed in body weights; also recorded: increases absolute body weights and % change in body weights
- viability of BM cells ([6]; 0.1/0.3 mg/kg, PHZ 60 mg/kg, FIG. 23A): marked increase in viability; also recorded: substantially increases viability
- common myeloid progenitors (CMP) and granulocyte monocyte progenitors (GMP) in BM [6, 11]: not affected
- megakaryocyte erythroid progenitors (MEP) in BM [6, 11]: specifically boosted megakaryocyte erythroid progenitors (MEP); also recorded: substantially increases MEP
- megakaryocytic progenitors (MkP) in BM ([6]; 0.1/0.3 mg/kg, PHZ 60 mg/kg, FIG. 27): no stark differences were observed in megakaryocytic progenitors; also recorded: does not affect megakaryocytic progenitors
- mitochondrial mass in PBMCs (MitoTracker staining) ([6]; Day 4 after PHZ treatment, FIG. 21): increases MitoTracker® Staining
- mitochondrial biogenesis in BM cells (MitoTracker staining) ([6]; FIG. 23B): elevated mitochondrial biogenesis; also recorded: enhances mitochondrial biogenesis
- mitochondrial superoxide production in BM cells (MitoSox staining) ([6]; FIG. 23C): reduced mitochondrial superoxide production; also recorded: significantly reduces mitochondrial superoxide production
- LS-K cells in the bone marrow ([6]; FIG. 25): enhances LS-K cells
- Pre-CFU-E cells in the BM ([6]; FIG. 28): selectively enhances Pre-CFU-E cells
- pro-erythroblasts in the BM ([6]; FIG. 29): selectively enhances pro-erythroblasts
- granulocytic myeloid progenitors (GMP) in bone marrow ([6]; FIG. 41, study not stated in legend): does not affect granulocytic myeloid progenitors (GMP)
- RBC parameters (Hb, HCT %, RBC numbers) in peripheral blood ([6]; PHZ 60 mg/kg, FIG. 22B): consistently improved RBC parameters; also recorded: significantly enhances and sustains RBC parameters
- platelet counts ([6]; PHZ 60 mg/kg, FIG. 22C): no long term impact was observed in the WBC parameters or platelets; also recorded: not statistically significant
- WBC and monocyte counts ([6]; day 4 and over 14 days, PHZ 60 mg/kg, FIG. 22C): no long term impact was observed in the WBC parameters or platelets; also recorded: increases WBC and monocyte counts in the peripheral blood after 4 days of daily i.p. injections but does not sustain the impact over 14 days
- colony forming unit-erythroid (CFU-e) from BM ([7]; 0.3 mg/kg i.p., FIG. 39A): enhances colony forming unit-erythroid (CFU-e)
- transferrin receptor expression in CFU-e derived from BMPs ([7]; FIG. 39B): transferrin receptor expression is enhanced
- Hemoglobin (Hb) in peripheral blood ([7]; after 7 and 14 days of i.p., FIG. 35): increase Hemoglobin (Hb)
- RBC parameters (HCT % and RBCs) in peripheral blood ([7]; after 7 days of i.p., FIG. 34): increases RBC parameters
- LS-K and LSK cells in bone marrow progenitors ([7]; after 14 days of i.p., FIG. 36A-36B): increase LSK, LS-K, and mitochondrial activity
- mitochondrial membrane potential (TMRE staining) in bone marrow progenitors ([7]; after 14 days of i.p., FIG. 36C): increase LSK, LS-K, and mitochondrial activity
- megakaryocyte erythrocyte progenitors (MEP) in BM ([7]; after 14 days of i.p., FIG. 37A): increase megakaryocyte erythrocyte progenitors (MEP)
- body weights ([7]; i.p., PHZ 60 mg/kg, FIG. 32): enhances body weights
- platelets and WBCs in peripheral blood ([7]; i.p., PHZ 60 mg/kg, FIG. 33): do not affect platelets and WBCs
- survival (Kaplan-Meier) [8]: confers striking survival benefits
- % change in body weights ([9]; 0.1/0.3/0.5 mg/kg): increases body weights
- viability of BM progenitors ([9]; 0.1/0.3/0.5 mg/kg, FIG. 67A): substantially increases
- LS-K cells in the BM ([9]; 0.1/0.3/0.5 mg/kg, FIG. 67B): substantially increases
- MEP and MkP in BM ([9]; 0.1/0.3/0.5 mg/kg, FIG. 68A-68B): significantly elevates megakaryocyte erythroid progenitors (MEP) and megakaryocytic progenitors (MkP)
- expression of erythroid genes EPOR, ASXL1, NFE2 in sorted erythroid progenitors ([9]; 0.1/0.3/0.5 mg/kg, FIG. 70A-70C): substantially increases the expression of erythroid genes
- expression of ADRB2 in sorted erythroid progenitors ([9]; 0.1/0.3/0.5 mg/kg, FIG. 70D): does not influence the expression of β2-AR-encoding gene ADRB2
- % change in body weights ([9]; 0.1 and 0.3 mg/kg groups): did not show statistical significance
- HCT% ([9]; 0.1 and 0.5 mg/kg groups, FIG. 64C): did not show statistical significance
- RBC parameters (RBC numbers, Hb, HCT %) in peripheral blood ([9]; FIG. 64): enhances and sustains RBC parameters
- WBC numbers and platelet counts ([9]; FIG. 65A, 65C): does not influence
- monocyte counts in peripheral blood ([9]; FIG. 65B): modestly impacts monocyte counts
- mitochondrial biogenesis in BMPs (MitoTracker staining) ([9]; FIG. 66A): enhances mitochondrial biogenesis
- mitochondrial membrane potential in BMPs (TMRE staining) ([9]; FIG. 66B): enhances mitochondrial membrane potential
- mitochondrial superoxide production in BMPs (MitoSox staining) ([9]; FIG. 66C): significantly reduces mitochondrial superoxide production
- expression of mtDNA encoded genes ([10]; Arif et al. 2019): upregulates the expression of mtDNA encoded genes
- mitochondrial oxygen consumption rates (OCR) ([10]; in vitro and ex vivo (Arif et al. 2019)): promotes mitochondrial oxygen consumption rates (OCR)
- mitochondrial biogenesis ([10]; several in vitro and in vivo models (literature)): reported to augment mitochondrial biogenesis
